Data from article PMC9136011, “Targeting the Homologous Recombination Pathway in Cancer With a Novel Class of RAD51 Inhibitors” (Frontiers in Oncology, 2022).

Columns and labels:
A549 cells = assay: Cell growth inhibition assay (CellTiter-Glo) and Bliss synergy analysis; type: cell-based; details: Homo sapiens, A549, 168 h; 7 days, estimated from four-parameter curve
Procedure: (§1) Cells were seeded in opaque-walled 96-well microplates at appropriate densities according to the growth curves (data no shown). On the following day cells were dosed with compounds. After 7 days treatments, cells viability was measured by adding 30μL CellTiter-Glo reagent (Promega) and incubated for 10 min at RT. Luminescence was measured by Envision plate reader (Perkin Elmer). For synergy analysis, the survival rates of the cells upon different treatment combinations were calculated based on the luminescence and analyzed by Combenefit software. The bliss independence model was used to analyzed the interaction between two tested articles to determine if the interaction between those two tested articles was synergistic, independent or antagonistic.

Daudi cells = assay: as above; type: cell-based; details: Homo sapiens, 168 h, 7 days; for IC50: estimated from four-parameter curve
Procedure: as §1

KP-4 cells = assay: as above; type: cell-based; details: Homo sapiens, KP-4, 168 h; 7 days, estimated from four-parameter curve
Procedure: as §1

MDA-MB-436 cells = assay: as above; type: cell-based; details: Homo sapiens, MDA-MB-436, 168 h; 7 days, estimated from four-parameter curve
Procedure: as §1

MIA PaCa-2 cells = assay: as above; type: cell-based; details: Homo sapiens, MIA PaCa-2, 168 h; 7 days, estimated from four-parameter curve
Procedure: as §1

NCI-H23 cells = assay: as above; type: cell-based; details: Homo sapiens, NCI-H23, 168 h; 7 days, estimated from four-parameter curve
Procedure: as §1

HCC15 cells = assay: Cell growth inhibition assay (CellTiter-Glo); type: cell-based; details: Homo sapiens, HCC15, 168 h; 7 days, estimated from four-parameter curve
Procedure: as §1

HCC1937 cells = assay: Cell growth inhibition assay (CellTiter-Glo); type: cell-based; details: Homo sapiens, HCC1937, 168 h; 7 days, estimated from four-parameter curve
Procedure: as §1

HuP-T4 cells = assay: Cell growth inhibition assay (CellTiter-Glo); type: cell-based; details: Homo sapiens, HuP-T4, 168 h; 7 days, estimated from four-parameter curve
Procedure: as §1

MDA-MB-231 cells = assay: Cell growth inhibition assay (CellTiter-Glo); type: cell-based; details: Homo sapiens, MDA-MB-231, 168 h; 7 days, estimated from four-parameter curve
Procedure: as §1

MDA-MB-468 cells = assay: Cell growth inhibition assay (CellTiter-Glo); type: cell-based; details: Homo sapiens, MDA-MB-468, 168 h; 7 days, estimated from four-parameter curve
Procedure: as §1

NCI-H1563 cells = assay: Cell growth inhibition assay (CellTiter-Glo); type: cell-based; details: Homo sapiens, NCI-H1563, 168 h; 7 days, estimated from four-parameter curve
Procedure: as §1

NCI-H526 cells = assay: Cell growth inhibition assay (CellTiter-Glo); type: cell-based; details: Homo sapiens, NCI-H526, 168 h; 7 days, estimated from four-parameter curve
Procedure: as §1

Raji cells = assay: Cell growth inhibition assay (CellTiter-Glo); type: cell-based; details: Homo sapiens, 168 h, 7 days, estimated from four-parameter curve
Procedure: as §1

Z-138 cells = assay: Cell growth inhibition assay (CellTiter-Glo); type: cell-based; details: Homo sapiens, Z-138, 168 h; 7 days, estimated from four-parameter curve
Procedure: as §1

normal WI-38 cells = assay: Cell growth inhibition assay, normal cells; type: cell-based; details: Homo sapiens, read-out: IC50, normal cell viability
Procedure: as §1

Daudi xenograft = Daudi xenograft mouse model, tumor growth inhibition; type: in vivo; details: 2 mg/kg Cisplatin intraperitoneally every week
Procedure: Daudi xenograft mouse model was established by subcutaneously implantation of 10^7 cells into the female BABL/c nude mice at the age of 6-8 weeks. When tumors reached approximately 100-120 mm^3, the mice were randomly grouped into five groups (n=6) and treated with vehicle control orally every day, 30 mg/kg or 100 mg/kg Cpd-4 orally every day, 2 mg/kg Cisplatin intraperitoneally every week, or combination of 30 mg/kg Cpd-4 and 2 mg/kg Cisplatin. Cpd-4 was formulated in 30% PEG400 (Sigma) and 70% 10% vitamin E TPGS (Sigma) in water. Cisplatin was reconstituted in normal saline. Cpd-4 was administrated starting from Day 0 and Cisplatin was administrated starting from on Day1. Cisplatin was administrated 4 hours after the treatment of Cpd-4 at day 1, 8 and 15. Tumor volume was monitored twice a week.
The long diameter (a) and the short diameter (b) of the tumor were measured using caliper and the tumor volume (v was calculated using the following formula: […]
Tumor growth inhibition was calculated using the formula:
TGI(%)=(1−(Vt(treatment group)−V0(treatment group))/Vt(vehicle group)−V0(vehicle group))×100%
V0 is the tumor volume of the animal when treatment starts; vtis the tumor volume of the animal someday after treatment. The statistics of tumor volume was analyzed by two-way ANOVA followed by Tukey’s multiple comparisons test using GraphPad Prism 8.0.

[1] = system: 15 human tumor cell lines; assay: Cell growth inhibition assay, panel summary; type: cell-based; details: lowest to highest, upper end printed as over 25 μM, read-out: IC50 values across the 15 cell lines
Procedure: as §1

IC50 (A549 cells)	IC50 (Daudi cells)	IC50 (MDA-MB-436 cells)	IC50 (MIA PaCa-2 cells)	IC50 (NCI-H23 cells)	IC50 (HCC15 cells)	IC50 (HCC1937 cells)	IC50 (MDA-MB-231 cells)	IC50 (MDA-MB-468 cells)	IC50 (NCI-H1563 cells)	IC50 (NCI-H526 cells)	IC50 (Raji cells)	IC50 [1]	SMILES	inhibition at 0.25 µM (Daudi cells; Cpd-2 250 nM)	IC50 (KP-4 cells)	IC50 (HuP-T4 cells)	IC50 (Z-138 cells)	IC50 (normal WI-38 cells)	TGI (Daudi xenograft)
3.96 µM	0.048 µM	2.65 µM	4.73 µM	3.54 µM	2.02 µM	3.29 µM	5.15 µM	0.63 µM	12.8 µM	0.353 µM	0.164 µM	–	CC(C)OC(=O)Nc1ccc(-c2cnc(C3CCC(NC(=O)OC(C)C)CC3)s2)c(S(=O)(=O)C2CC2)c1 (stereo not shown) [Cpd-2]	41.1%	3.17 µM	7.99 µM	4.57 µM	> 10 µM	–
–	–	–	–	–	–	–	–	–	–	–	–	–	N.N.[Cl][Pt][Cl] [Cisplatin, cisplatin]	–	–	–	–	–	20.7%
17.8 µM	5.78 µM	0.134 µM	7.16 µM	3.3 µM	9.17 µM	10.7 µM	4.92 µM	5.55 µM	> 25 µM	3.91 µM	4.87 µM	0.134 to 25 µM	O=C(c1cc(Cc2n[nH]c(=O)c3ccccc23)ccc1F)N1CCN(C(=O)C2CC2)CC1 [Olaparib, olaparib]	–	7.09 µM	7.71 µM	1.49 µM	–	–
